These results are taken from patent publication US11905279B1, “Benzylidene derivatives of fenobam as anti-inflammatory agents” (KING FAISAL UNIVERSITY, priority 2023, dated 2024).

Molecules are shown by their SMILES.

One assay deals with T1, human COX-2 (Homo sapiens, UniProt P35354).
T1 construct: purchased
T1 sequence (P35354 18-604): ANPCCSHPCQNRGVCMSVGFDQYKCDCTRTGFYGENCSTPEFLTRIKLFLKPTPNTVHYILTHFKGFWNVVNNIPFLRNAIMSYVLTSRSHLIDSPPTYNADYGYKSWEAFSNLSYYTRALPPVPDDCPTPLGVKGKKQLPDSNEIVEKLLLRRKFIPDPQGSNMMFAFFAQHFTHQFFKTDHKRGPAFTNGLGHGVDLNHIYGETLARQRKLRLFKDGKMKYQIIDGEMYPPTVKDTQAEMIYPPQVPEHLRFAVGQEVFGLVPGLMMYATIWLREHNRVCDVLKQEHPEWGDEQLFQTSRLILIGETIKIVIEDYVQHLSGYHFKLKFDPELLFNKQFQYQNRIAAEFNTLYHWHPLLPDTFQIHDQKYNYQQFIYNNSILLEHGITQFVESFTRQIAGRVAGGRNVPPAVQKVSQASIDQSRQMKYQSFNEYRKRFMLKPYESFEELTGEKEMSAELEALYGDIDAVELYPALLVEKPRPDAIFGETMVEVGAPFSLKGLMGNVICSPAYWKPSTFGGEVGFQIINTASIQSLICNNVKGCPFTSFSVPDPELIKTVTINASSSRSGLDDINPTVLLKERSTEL
Description: Cyclooxygenase (COX-2) enzyme inhibition assay, COX (human) Inhibitor Screening Assay Kit. The assay is classed as biochemical. As to conditions: compound at 10 μM; in vitro, human COX-2 isoenzyme; ELISA incubation 18 hours; read-out: % Inhibition( COX2) Mean ± SEM. The procedure:
(§1) According to manufacturer instructions, a COX inhibition assay was performed using COX (human) Inhibitor Screening Assay Kit for the compounds 5c, 5d, 5h, 5k, 5l, 5m, and 6d. All reagents and buffers were prepared in ultrapure water. All stock solutions of the compounds and the positive controls (Indomethacin and Celecoxib) were dissolved in DMSO. In each inhibitor sample tube, 160 μL reaction buffer, 10 μL of heme, 10 μL of diluted COX-1 or COX-2 enzyme, and 10 μL of the diluted inhibitor was added to get a final concentration of 100 μM. […] 10 μL of the vehicle control (DMSO) was added to the background tubes, and COX enzyme's 100% initial activity was obtained. All reaction tubes were incubated for 10 minutes at 37° C. Following this incubation, 10 μL of the substrate, arachidonic acid (AA), was added to all test tubes, mixed, and further incubated for precisely 30 seconds at 37° C. Then, 30 μL of SnCl2 solution was added to each reaction tube to stop the enzyme catalysis. All reaction tubes were removed from the incubator, vortexed, and incubated again for 5 min at room temperature. Reaction tubes were stored at 4° C. to quantify the prostaglandin formation by competitive enzyme-linked immunosorbent assay (ELISA). ELISA standards were prepared in test tubes to perform the competitive ELISA, and dilutions were prepared with the ELISA buffer. The standards, COX reaction dilutions, and background samples were serially diluted. After that, 50 μL of the diluted standards, COX background, COX 100% initial activity, and COX inhibitor samples were transferred to the corresponding wells of 96 well ELISA plate. Blank (to assess the background absorbance caused by Ellman's reagent) and total activity (TA) (to determine the enzymatic activity of the AChE-linked tracer) wells were left empty, 100 μL and 50 μL of the ELISA buffer were added to the nonspecific binding (NSB) and maximum binding (BO), respectively. Prostaglandin screening AChE tracer (50 μL) and prostaglandin screening ELISA antiserum (50 μL) were added to corresponding wells except for TA. The plate was covered with a plastic film, wrapped with foil to protect from light, and incubated for 18 hours at room temperature. Following incubation, the plate was washed and developed with 200 μL of Ellman's reagent to all wells, and 5 μL of tracer was added to TA well. The plate was covered with foil, placed on an orbital shaker, and incubated for 60-90 minutes. Finally, the plate reading was done at a wavelength of 405 nm with a Microplate reader from BioTek (by Agilent), and data were collected using Gen5™ (by Agilent) analysis software.
(§2) In vitro catalytic inhibition data of compounds 5c, 5d, 5h, 5k, 5l, 5m, and 6d at 10 μM against human COX-1 and COX-2 isoenzymes is listed in Table 1.

The target of another assay is T2, human COX-1 (Homo sapiens, UniProt P23219).
T2 construct: purchased
Description: Cyclooxygenase (COX-1) enzyme inhibition assay, COX (human) Inhibitor Screening Assay Kit. Particulars: compound at 10 μM; in vitro, human COX-1 isoenzyme; ELISA incubation 18 hours; read-out: % Inhibition( COX1) Mean ± SEM. Format: biochemical. The procedure: as §1, §2

T2 sequence (P23219 24-599): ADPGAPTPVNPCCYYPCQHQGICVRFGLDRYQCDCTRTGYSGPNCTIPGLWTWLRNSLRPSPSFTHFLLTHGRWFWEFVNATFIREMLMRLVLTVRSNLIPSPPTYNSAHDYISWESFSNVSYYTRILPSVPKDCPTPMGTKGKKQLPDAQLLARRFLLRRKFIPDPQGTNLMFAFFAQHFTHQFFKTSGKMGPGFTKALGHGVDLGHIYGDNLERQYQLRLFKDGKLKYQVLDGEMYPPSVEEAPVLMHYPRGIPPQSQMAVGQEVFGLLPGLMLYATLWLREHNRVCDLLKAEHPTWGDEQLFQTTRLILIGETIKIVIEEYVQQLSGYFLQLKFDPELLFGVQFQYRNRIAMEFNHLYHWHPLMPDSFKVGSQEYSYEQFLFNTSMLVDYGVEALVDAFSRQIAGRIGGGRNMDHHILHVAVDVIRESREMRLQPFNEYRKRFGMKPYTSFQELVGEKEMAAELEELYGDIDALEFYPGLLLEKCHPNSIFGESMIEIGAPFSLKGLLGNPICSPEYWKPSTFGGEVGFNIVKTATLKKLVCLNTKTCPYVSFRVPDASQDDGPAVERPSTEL

In the case of `CN1/C(=C\c2ccc(-c3ccccc3[N+](=O)[O-])o2)C(=O)N/C1=N\C(=S)Nc1cccc(Cl)c1` [Compound 6d, 1-(3-Chlorophenyl)-3-[(2E,5Z)-1-methyl-5-{[5-(2-nitrophenyl)furan-2-yl]methylidene}-4-oxoimidazolidin-2-ylidene]thiourea], the figures for the inhibition at 10 µM at human COX-2 and at human COX-1 were 54 ± 8.5% and -14 ± 5.5%, respectively.

For the compound `CN1/C(=C\c2ccc(Br)o2)C(=O)N/C1=N\C(=O)Nc1ccccc1F` [Compound 5c, 1-{(2E,5Z)-5-[(5-Bromofuran-2-yl)methylidene]-1-methyl-4-oxoimidazolidin-2-ylidene}-3-(2-fluorophenyl)urea], the inhibition at 10 µM on human COX-2 stood at 78 ± 15.5%; at human COX-1, 17 ± 6.5%.

As for `CN1/C(=C\c2ccc(-c3ccccc3[N+](=O)[O-])o2)C(=O)N/C1=N\C(=O)Nc1ccc(F)cc1` [Compound 5l, 1-(4-Fluorophenyl)-3-[(2E,5Z)-1-methyl-5-{[5-(2-nitrophenyl)furan-2-yl]methylidene}-4-oxoimidazolidin-2-ylidene]urea], the inhibition at 10 µM on human COX-2 came out at 20 ± 5.5%; on human COX-1, 31 ± 2.5%.

For `CN1/C(=C\c2ccc(Br)o2)C(=O)N/C1=N\C(=O)Nc1ccc(F)cc1` [Compound 5k, 1-{(2E,5Z)-5-[(5-Bromofuran-2-yl)methylidene]-1-methyl-4-oxoimidazolidin-2-ylidene}-3-(4-fluorophenyl)urea], the inhibition at 10 µM on human COX-2 is 89 ± 3%; at human COX-1, 26 ± 6.5%.

On to `CN1/C(=C\c2ccc(-c3ccccc3[N+](=O)[O-])o2)C(=O)N/C1=N\C(=O)Nc1ccccc1F` [Compound 5d, 1-(2-Fluorophenyl)-3-[(2E,5Z)-1-methyl-5-{[5-(2-nitrophenyl)furan-2-yl]methylidene}-4-oxoimidazolidin-2-ylidene]urea], for which the inhibition at 10 µM is 97 ± 0.5% at human COX-2 and 57 ± 0.15% on human COX-1.

Turning to `CN1/C(=C\c2ccc(-c3ccccc3[N+](=O)[O-])o2)C(=O)N/C1=N\C(=O)Nc1cccc(F)c1` [Compound 5h, 1-(3-Fluorophenyl)-3-[(2E,5Z)-1-methyl-5-{[5-(2-nitrophenyl)furan-2-yl]methylidene}-4-oxoimidazolidin-2-ylidene]urea], the inhibition at 10 µM on human COX-2 was 39 ± 2%; on human COX-1, 51 ± 7%.

As for `CN1/C(=C\c2ccc([N+](=O)[O-])cc2)C(=O)N/C1=N\C(=O)Nc1ccc(Cl)cc1Cl` [Compound 5m, 1-(2,4-Dichlorophenyl)-3-[(2E,5Z)-1-methyl-5-(4-nitrobenzylidene)-4-oxoimidazolidin-2-ylidene]urea], the inhibition at 10 µM on human COX-2 was determined as 69 ± 2.5%; at human COX-1, 5 ± 23.5%.
